One data set concerns the target GSK3β (Homo sapiens, UniProt P49841). The experiment in a line: Inhibitory activity against GSK3β (33P-ATP phosphorylation of prephosphorylated GS1 peptide, four protocols). Format: biochemical. The note with it: protocol 3: 7.5 μM GS1 peptide, 10 μM ATP, 50 mM Hepes pH 7.2, one hour at room temperature. How it is done:
Inhibitory Activity of the Medicament of the Present Invention Against GSK3β Four different protocols can be used. In a first protocol: 7.5 μM of prephosphorylated GS1 peptide and 10 μM ATP (containing 300,000 cpm of ^33P-ATP) were incubated in 25 mM Tris-HCl, pH 7.5, 0.6 mM DTT, 6 mM MgCl2, 0.6 mM EGTA, 0.05 mg/ml BSA buffer for 1 hour at room temperature in the presence of GSK3beta (total reaction volume: 100 microliters). In a second protocol: 4.1 μM of prephosphorylated GS1 peptide and 42 μM ATP (containing 260,000 cpm ^33P-ATP) were incubated in 80 mM Mes-NaOH, pH 6.5, 1 mM Mg acetate, 0.5 mM EGTA, 5 mM 2-mercaptoethanol, 0.02% Tween 20, 10% glycerol buffer for 2 hours at room temperature in the presence of GSK3beta. In a third protocol: 7.5 μM of prephosphorylated GS1 peptide and 10 μM ATP (containing 300,000 cpm of ^33P-ATP) were incubated in 50 mM Hepes, pH 7.2, 1 mM DTT, 1 mM MgCl2, 1 mM EGTA, 0.01% Tween 20 buffer for one hour at room temperature in the presence of GSK3beta (total reaction volume: 100 microliters). […] Incorporated ^33P radioactivity was determined by liquid scintillation spectrometry. […]

As usually defined, the melting point is the temperature of the solid-liquid transition. One may read the IC50 as the concentration at which inhibition is half-maximal. A higher IC50 goes with a need for much substance.

Structures are written as SMILES.

Chain of GSK3β (P49841 whole entry): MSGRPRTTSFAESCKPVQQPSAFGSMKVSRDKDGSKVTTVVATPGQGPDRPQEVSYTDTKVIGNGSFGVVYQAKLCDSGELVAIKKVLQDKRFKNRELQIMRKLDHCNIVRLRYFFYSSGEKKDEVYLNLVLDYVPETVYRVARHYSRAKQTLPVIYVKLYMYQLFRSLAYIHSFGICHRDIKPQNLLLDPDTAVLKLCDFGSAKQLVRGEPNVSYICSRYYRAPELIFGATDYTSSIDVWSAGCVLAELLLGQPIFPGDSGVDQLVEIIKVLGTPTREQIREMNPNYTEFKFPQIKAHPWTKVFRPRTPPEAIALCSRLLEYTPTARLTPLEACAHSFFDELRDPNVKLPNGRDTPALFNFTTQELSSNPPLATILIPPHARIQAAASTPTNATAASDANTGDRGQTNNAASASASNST

In turn, `Cn1c(NCC(O)c2ccccc2)nc(-c2ccncc2)nc1=O` (racemic) [Compound No. 1, (+/−)-6-(2-Hydroxy-2-phenyl-ethylamino)-1-methyl-4-pyridin-4-yl-1H-[1,3,5]triazin-2-one] returned a melting point of 242 to 244 °C. For the same compound, the IC50 against GSK3β was 372 nM.

The compound `O=c1nc(-c2ccncc2)nc(NCCc2ccccc2)[nH]1` [compound 5, 6-(2-Phenylethyl)amino-4-pyridin-4-yl-1H-[1,3,5]triazin-2-one] displayed a melting point of 235 to 237 °C. This compound also came in with an IC50 at GSK3β of 50 nM.
